Measured values taken from patent US8729053B2, “Nuclear factor kappa B pathway inhibitor composition and use of same” (The United States of America, as represented by the …, priority 2008, dated 2014).

Columns and labels:
[1] = tested on: NFκB; experiment: NFκB luciferase reporter assay in HEK293 cells; type: cell-based; details: at 1 to 8 μM, TPA 10 ng/ml 18 hours
Protocol: (§1) All expression plasmids were transiently transfected into HEK293 cells in a 96-well plate (0.1 μg/well) by using Effectene transfection reagent (Qiagen, Valencia, Calif.) according to the manufacturer's manual. HEK293 cells were maintained in Dulbecco's modified Eagle medium (Sigma, St. Louis, Mo.) supplemented with 10% fetal bovine serum (Atlanta Biologicals, Lawrenceville, Ga.) and incubated at 37° C. in a 5% CO2 incubator. After 24 hrs incubation, the medium was changed to DMEM with 0.2% FBS, and the transfectants were exposed to various concentrations of compound I and TPA (10 ng/ml). Cells were lysed with passive lysis buffer and the luciferase assay was performed using the Firefly-Luciferase reporter assay system (Promega, Madison, Wis.) and MLX Luminometer (Dynex Technology, Chantilly, Va.).
(§2) Three different luciferase reporter genes, AP-1 reporter containing four times TRE consensus originated from GCN4 and SRE reporter purchased from Stratagene (La Jolla, Calif.) respectively are as described previously (Suzukawa et al., Environ. Health Perspect., 2002, 110, 865-70). NFκB reporter is driven by five times NFκB responsive element inserted into Cis-reporter backbone (Stratagene, La Jolla, Calif.). Others include mouse COX-2 promoter region from −203 to +70 relative to the transcription site inserted into pTIS10L vector (Kim and Fischer, J. Biol. Chem., 1998, 273, 27686-94), human uPAR promoter region from −141 to +47 relative to transcription start site in pGL3 vector (Wang et al., Eur. J. Biochem., 2000, 267, 3248-54), and human VEGF promoter sequence from −2274 to +379 inserted into the pGL2 vector (Ding et al., J. Biol. Chem., 2006, 281, 9093-100).
To evaluate whether the compound I biological activity can imitate TAM67 specificity, three different transcriptional promoter reporters were used, AP-1, NFκB, and SRE (Serum response element) in luciferase reporter assays (FIG. 1A: The transfected cells were pre-treated with varied concentrations of compound I or DMSO for 1 hour before 18 hours stimulation by TPA (10 ng/ml) or DMSO as vehicle. An asterisk (*) indicates a separate experiment with NFκB dependent luciferase only. Assays were performed with two independent experiments each in quadruplicate.). All three activities were induced by TPA but only induction of AP-I and NFκB were inhibited by TAM67. The SRE reporter was used as a specificity control and indicator of cell proliferation. TPA-induced SRE activity was not repressed by TAM67 when coexpressed with the SRE-Luc reporter in HEK293 cells. The same concentration (10 ng/ml, 16.2 nM) and incubation time (18 hrs) were used for TPA induction as previously used for the high throughput screen (HTS) (Ruocco et al., J. Biomol. Screen., 2007, 12, 133-9) along with 1 h pretreatment of compound I. The screening results had tested concentrations as high as 40 μM compound I with cell numbers showing 95.5+/−6.2% of DMSO control (ave+/− sd, n=3) by the XTT assay in HEK293T cells.

[2] = target: T1, IKKβ (Homo sapiens, UniProt O14920); experiment: K-LISA IKKβ Inhibitor Screening Kit in vitro assay; type: biochemical; details: 0.1 to 100 μM, incubated with ATP
T1 construct: purchased Calbiochem
T1 sequence (O14920 1-756): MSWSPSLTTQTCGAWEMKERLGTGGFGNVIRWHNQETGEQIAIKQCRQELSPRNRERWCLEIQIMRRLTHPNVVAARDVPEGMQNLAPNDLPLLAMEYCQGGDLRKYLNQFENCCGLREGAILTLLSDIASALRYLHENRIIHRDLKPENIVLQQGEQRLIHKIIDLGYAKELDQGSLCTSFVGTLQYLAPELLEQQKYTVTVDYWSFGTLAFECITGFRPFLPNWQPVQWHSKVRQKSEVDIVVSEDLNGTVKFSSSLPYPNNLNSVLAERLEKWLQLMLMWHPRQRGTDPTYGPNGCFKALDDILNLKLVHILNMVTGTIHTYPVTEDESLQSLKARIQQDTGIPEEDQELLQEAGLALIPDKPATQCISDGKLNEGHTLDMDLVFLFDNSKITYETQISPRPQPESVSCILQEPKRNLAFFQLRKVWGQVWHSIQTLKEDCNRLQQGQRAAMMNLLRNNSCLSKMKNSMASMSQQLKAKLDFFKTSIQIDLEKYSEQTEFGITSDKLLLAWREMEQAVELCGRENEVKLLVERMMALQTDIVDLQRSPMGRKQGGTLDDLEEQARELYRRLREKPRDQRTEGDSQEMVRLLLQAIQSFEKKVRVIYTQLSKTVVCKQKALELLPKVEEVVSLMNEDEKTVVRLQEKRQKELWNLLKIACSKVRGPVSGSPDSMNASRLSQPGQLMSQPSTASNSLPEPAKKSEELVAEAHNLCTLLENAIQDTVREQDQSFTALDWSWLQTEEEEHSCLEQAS
Protocol: In an attempt to determine whether compound I interferes with ATP binding to the catalytic site, the activity of compound I was measured with fully activated, phosphorylated IKKα or IKKβ. […] However, whether this compound interacts outside of the ATP binding pocket of IKK as an ATP non-competitive inhibitor similar to BMS-345541 is unknown. […] Luciferase activities with TPA induction alone were set at 100% and the relative activities with TPA in the presence of compounds are shown.

[3] = tested on: AP-1; experiment: AP-1 luciferase reporter assay in HEK293 cells; type: cell-based; details: HEK293, TPA 10 ng/ml 18 hours
Protocol: as §1
as §2, with “9093-100). […]” for “9093-100).”

[4] = tested on: SRE (Serum response element); experiment: SRE luciferase reporter assay in HEK293 cells; type: cell-based; details: HEK293, TPA 10 ng/ml 18 hours
Protocol: as §1
Three different luciferase reporter genes, AP-1 reporter containing four times TRE consensus originated from GCN4 and SRE reporter purchased from Stratagene (La Jolla, Calif.) respectively are as described previously (Suzukawa et al., Environ. Health Perspect., 2002, 110, 865-70). NFκB reporter is driven by five times NFκB responsive element inserted into Cis-reporter backbone (Stratagene, La Jolla, Calif.). […]

Compound	Inhibition of NFκB-Luciferase [1]	Inhibition of phosphorylation of IκBα peptide substrate catalyzed by IKKβ [2]	Inhibition of TPA-induced AP-1 luciferase activity [3]	TPA-induced SRE luciferase activity [4]
Cc1ccc2nc(NCCN)c3ncc(C)n3c2c1 [BMS-345541, reference compound]	dose-dependent inhibition	no inhibition	without inhibition	
O=C(O)c1cc(/N=N/c2ccc(S(=O)(=O)Nc3ccccn3)cc2)ccc1O [sulfasalazine, reference compound]				no sparing
